Reference: patent US20100331181A1, “Method for Protecting Cereals From Being Infected By Fungi” (BASF SE, priority 2008, published 2010)

Assays:
Rhizoctonia solani = test: Microtest (micro titer plate): activity against Rhizoctonia solani; format: cell-based; conditions: 7 days after inoculation
Source text: (§1) The active compounds were formulated separately as a stock solution having a concentration of 10000 ppm in dimethyl sulfoxide.
(§2) Epoxiconazole was used as commercial finished formulation and diluted with water to the stated concentration of the active compound.
B) 1. Activity against Rhizoctonia solani
(§3) The stock solutions were mixed according to the ratio, pipetted onto a micro titer plate (MTP) and diluted with water to the stated concentrations. A spore suspension of Septoria tritici in an aqueous biomalt solution was then added. The plates were placed in a water vapor-saturated chamber at a temperature of 18° C. Using an absorption photometer, the MTPs were measured at 405 nm 7 days after the inoculation.
(§4) The measured parameters were compared to the growth of the active compound-free control variant (100%) and the fungus-free and active compound-free blank value to determine the relative growth in % of the pathogens in the respective active compounds. These percentages were converted into efficacies. An efficacy of 0 means that the growth level of the pathogens corresponds to that of the untreated control; an efficacy of 100 means that the pathogens were not growing.
(§5) The expected efficacies of active compound mixtures were determined using Colby's formula [R. S. Colby, “Calculating synergistic and antagonistic responses of herbicide combinations”, Weeds 15, 20-22 (1967)] and compared with the observed efficacies.

Septoria tritici = test: Microtest (micro titer plate): activity against Septoria tritici; format: cell-based; conditions: 7 days after inoculation
Source text: as §1, §2
B) 2. Activity against Septoria tritici
as §3, §4, §5

Puccinia recondita = test: Greenhouse: preventative control of brown rust on wheat; format: in vivo; conditions: 0.25 ppm, wheat seedlings sprayed 1 day before inoculation, % of untreated control
Experimental: The spray solutions were prepared in several steps:
The stock solution were prepared: a mixture of acetone and/or dimethylsulfoxide and the wetting agent/emulsifier Wettol®, which is based on ethoxylated alkylphenoles, in a relation (volume) solvent-emulsifier of 99 to 1 was added to 25 mg of the compound to give a total of 10 ml.
Water was then added to total volume of 100 ml.
This stock solution was diluted with the described solvent-emulsifier-water mixture to the given concentration.
The product epoxiconazole was used as commercial finished formulation and diluted with water to the stated concentration of the active compound.
Preventative Control of Brown Rust on Wheat Caused by Puccinia recondite
The first two developed leaves of pot-grown wheat seedling were sprayed to run-off with an aqueous suspension, containing the concentration of active ingredient or their mixture as described below. The next day the plants were inoculated with spores of Puccinia recondita. To ensure the success the artificial inoculation, the plants were transferred to a humid chamber without light and a relative humidity of 95 to 99% and 20 to 22 °C. for 24 h. Then the trial plants were cultivated for 6 days in a greenhouse chamber at 22-26° C. and a relative humidity between 65 and 70%. The extent of fungal attack on the leaves was visually assessed as % diseased leaf area. […]
as §5
The visually determined percentages of infected leaf areas were converted into efficacies in % of the untreated control.
The efficacy (E) is calculated as follows using Abbot's formula: […]
The expected efficacies of active compound combinations were determined using Colby's formula (Colby, S. R. “Calculating synergistic and antagonistic responses of herbicide combinations”, Weeds, 15, pp. 20-22, 1967) and compared with the observed efficacies. […]

In the case of `Fc1ccc([C@]2(Cn3cncn3)O[C@H]2c2ccccc2Cl)cc1` (racemic) [Epoxiconazole, epoxiconazole], the Observed efficacy (Rhizoctonia solani; 0.004 ppm) is reported as 0%.

`Cc1nn(C)c(F)c1C(=O)Nc1ccccc1C(C)CC(C)C` (stereo not drawn) [Compound (II), N-[2-(1,3-dimethylbutyl)-phenyl]-1,3-dimethyl-5-fluor-1H-pyrazole-4-carboxamide] gave an Observed efficacy (Septoria tritici; 0.004 ppm) of 0%.

Work on `Cn1cc(C(=O)Nc2ccc(F)cc2-c2ccc(Cl)c(Cl)c2)c(C(F)F)n1` [Bixafen, N-(3′,4′-dichloro-5-fluorobiphenyl-2-yl)-3-(difluoromethyl)-1-methylpyrazole-4-carboxamide] yielded an Observed efficacy (Puccinia recondita) of 0%, an Observed efficacy (Rhizoctonia solani; 0.001 ppm) of 0% and an Observed efficacy (Rhizoctonia solani; 0.004 ppm) of 7%.

`OC(Cc1ccccc1Cl)(Cn1nc[nH]c1=S)C1(Cl)CC1` (stereo not drawn) [Prothioconazole] was tested, and the Observed efficacy (Puccinia recondita) was 0%, the Observed efficacy (Rhizoctonia solani; 0.016 ppm) was 11% and the Observed efficacy (Septoria tritici; 0.016 ppm) was 5%.

`CC1(C)CCC(Cc2ccc(Cl)cc2)C1(O)Cn1cncn1` (stereo not drawn) [Metconazole, metconazole] gave an Observed efficacy (Puccinia recondita) of 33%, an Observed efficacy (Rhizoctonia solani; 0.004 ppm) of 26% and an Observed efficacy (Rhizoctonia solani; 0.016 ppm) of 62%. It also gave an Observed efficacy (Septoria tritici; 0.016 ppm) of 19%.
